Data as given in PubChem BioAssay (NCI).
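Protocol summary: plate cells (96-well), add compound at 5 concentrations, incubate 48 h, interpolate endpoints linearly. TGI marks complete inhibition of growth.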 Where a SMILES comes first, the peptide text is derived from it. The star is where a group is joined. Fmoc = O=C(OCC1c2ccccc2-c2ccccc21)*; Boc = CC(C)(C)OC(=O)*

Tests used:
Test in all cases: growth of human tumour cells (NCI), 48 h
PC-3 prostate = test system: PC-3 prostate
NCI/ADR-RES ovarian = test system: NCI/ADR-RES ovarian
SNB-75 CNS = test system: SNB-75 CNS
MCF7 breast = test system: MCF7 breast
LOX IMVI melanoma = test system: LOX IMVI melanoma
NCI-H23 lung = test system: NCI-H23 lung
M14 melanoma = test system: M14 melanoma
OVCAR-3 ovarian = test system: OVCAR-3 ovarian
TK-10 renal = test system: TK-10 renal
DU-145 prostate = test system: DU-145 prostate
MDA-N = test system: MDA-N

| Structure (SMILES) | TGI (PC-3 prostate) | TGI (NCI/ADR-RES ovarian) | TGI (SNB-75 CNS) | TGI (MCF7 breast) | TGI (LOX IMVI melanoma) | TGI (NCI-H23 lung) | TGI (M14 melanoma) | TGI (OVCAR-3 ovarian) | TGI (TK-10 renal) | TGI (DU-145 prostate) | TGI (MDA-N) |
| --- | --- | --- | --- | --- | --- | --- | --- | --- | --- | --- | --- |
| C/C(=C/C(=O)Nn1c(Cc2ccccc2)n[nH]c1=O)C(=O)O | > 100 µM | > 100 µM | > 100 µM | > 100 µM | > 100 µM | > 100 µM | > 100 µM | > 100 µM | > 100 µM | > 100 µM | > 100 µM |
| CCOc1ccc(/C=N/[N+](C)(C)C)cc1OCC | > 10 µM | > 10 µM | > 10 µM | > 10 µM | > 10 µM | > 10 µM | > 10 µM | > 10 µM | > 10 µM | > 10 µM | > 10 µM |
| CSCCCNC(=O)c1csc(-c2csc(C(CNC(=O)OC(C)(C)C)CNC(=O)OC(C)(C)C)n2)n1 | > 100 µM | > 100 µM | > 100 µM | > 100 µM | > 100 µM | > 100 µM | > 100 µM | > 100 µM | > 100 µM | > 100 µM | > 100 µM |
| CSc1c(C#N)c(N)nc2c(N=Nc3ccc(Cl)cc3)c(N)nn12 | 7.38 µM | 39 µM | 15.3 µM | 4.71 µM | 2.87 µM | 7.25 µM | 47.6 µM | 3.38 µM | 26.8 µM | 5.7 µM | 23.4 µM |
| O=C(/C=C/c1ccc(/C=C/C(=O)c2ccc(O)cc2)cc1)c1ccc(O)cc1 | > 100 µM | > 100 µM | > 100 µM | > 100 µM | > 100 µM | > 100 µM | > 100 µM | > 100 µM | > 100 µM | > 100 µM | > 100 µM |
| Cc1ccc(OC2CC(n3cnc4ncnc(Cl)c43)OC2Oc2ccc(C)cc2)cc1 (centres undefined) | 36.3 µM | 64.9 µM | 69.1 µM | 29.9 µM | > 100 µM | 82.5 µM | 65.8 µM | 33.9 µM | > 100 µM | 53.2 µM | > 100 µM |
| CC(C)(C)OC(=O)NCCCCC(NC(=O)OCC1c2ccccc2-c2ccccc21)C(=O)N1CCCC1C(=O)NCC(N)=O (stereo not drawn) (Fmoc-Lys(Boc)-Pro-Gly-NH2; configuration not given here) | > 100 µM | > 100 µM | > 100 µM | > 100 µM | 40 µM | > 100 µM | > 100 µM | > 100 µM | > 100 µM | > 100 µM | 49.9 µM |
| CCOC(=O)c1ccc(C(=O)/C(C(C)=O)=C2\CCCN2C)n1C | > 100 µM | > 100 µM | 66.6 µM | > 100 µM | > 100 µM | > 100 µM | > 100 µM | > 100 µM | > 100 µM | > 100 µM | > 100 µM |
| Cc1cc(Cc2c(F)c(F)c(C(c3cc(C)no3)c3c(F)c(F)c(F)c(F)c3F)c(F)c2F)on1 (centres undefined) | > 100 µM | > 100 µM | > 100 µM | > 100 µM | > 100 µM | > 100 µM | > 100 µM | > 100 µM | > 100 µM | > 100 µM | 15.1 µM |
| Cc1cc(NC[C@H](O)[C@H](O)[C@H](O)CO)c(Sc2cc(=O)[nH]c(=O)[nH]2)cc1C | > 62.5 µM | > 62.5 µM | > 62.5 µM | > 62.5 µM | > 62.5 µM | > 62.5 µM | > 62.5 µM | > 62.5 µM | > 62.5 µM | > 62.5 µM | > 62.5 µM |
| N#CCCC1(CCC#N)CCCCCCCCC(CCC#N)(CCC#N)C(=O)C1=O | > 100 µM | > 100 µM | > 100 µM | > 100 µM | > 100 µM | > 100 µM | > 100 µM | > 100 µM | > 100 µM | > 100 µM | > 100 µM |
| CCCCCCCCCCCCOP(=O)(O)OCC(N)C(=O)O (centres undefined) | 35.1 µM | > 100 µM | 51.9 µM | > 100 µM | 64 µM | > 100 µM | > 100 µM | 33.2 µM | 53 µM | > 100 µM | 62.6 µM |
| CC(C)(C)c1cc(C2=NN(c3ccccc3)C(c3ccccc3)C2)cc(C(C)(C)C)c1O (centres undefined) | > 100 µM | > 100 µM | > 100 µM | > 100 µM | > 100 µM | > 100 µM | > 100 µM | > 100 µM | > 100 µM | > 100 µM | > 100 µM |
| CCn1cc(C(=O)O)c(=O)c2cc3c(cc21)S(=O)(=O)CC3 | > 100 µM | > 100 µM | > 100 µM | > 100 µM | > 100 µM | > 100 µM | > 100 µM | > 100 µM | > 100 µM | > 100 µM | > 100 µM |
| O=C(CCCCCCC(=O)Nc1cccnc1)NO | > 100 µM | 10.1 µM | > 100 µM | > 100 µM | 38.9 µM | > 100 µM | > 56 µM | 18.7 µM | > 100 µM | > 31.5 µM | > 25.6 µM |
| N#C/C(=C\NC(=S)c1ccncc1)c1nc2ccccc2s1 | > 100 µM | > 100 µM | > 100 µM | > 100 µM | > 100 µM | > 100 µM | > 100 µM | > 100 µM | > 100 µM | > 100 µM | > 100 µM |
| Cc1cc(C)c2c(n1)S(=O)(=O)N(CCCN1CCN(c3cccc(C(F)(F)F)c3)CC1)c1c-2nn(C)c1C | > 100 µM | > 100 µM | > 100 µM | > 100 µM | > 100 µM | > 100 µM | > 100 µM | > 100 µM | > 100 µM | > 100 µM | > 100 µM |
| Fc1ccc2nc3n(c2c1)C(c1c(Cl)cccc1Cl)SC3 (centres undefined) | > 100 µM | > 100 µM | > 100 µM | > 100 µM | > 100 µM | > 100 µM | > 100 µM | > 100 µM | > 100 µM | > 100 µM | > 100 µM |
| O=C1/C(=C/c2ccccc2O)N=C(c2ccccc2)N1c1nc2ccccc2s1 | 43.8 µM | 52.1 µM | 98.2 µM | 69.2 µM | > 100 µM | 38.5 µM | 85.6 µM | 54.3 µM | 74.9 µM | > 100 µM | 8.55 µM |
